Experimental data taken from patent US20070212428A1, “METHODS AND COMPOSITIONS FOR TREATING MOOD DISORDER” (MOOD MANAGEMENT SCIENCES, INC., priority 2004, published 2007).
Structures can show the parent of a compound that is named as a salt. Where two headings read alike, the source gives them in different places.

Columns and labels:
[1] = system: norepinephrine neuronal reuptake; conditions: cited from earlier work
[2] = system: dopamine neuronal reuptake; conditions: cited from earlier work
[3] = system: GABA uptake or degradation; conditions: cited from earlier work
[4] = system: GABAA or GABAB; conditions: cited from earlier work
[5] = system: treatment resistant depression; test: Example 11: case, treatment resistant depression; format: in vivo, human; conditions: under prior psychiatrist
[6] = system: monoamine oxidase; conditions: cited from earlier work
[7] = cited from earlier work; for elimination half-life: plasma; for oral absorption (in words): oral administration; for time to peak plasma concentration: after oral dosing
[8] = system: central presynaptic a2 adrenergic inhibitory autoreceptors and heteroreceptors; conditions: cited from earlier work
[9] = system: serotonin 5-HT2 and 5-HT3 receptors; conditions: cited from earlier work
[10] = system: 5-HT1A and 5-HT1B receptors; conditions: cited from earlier work
[11] = target: T1, histamine H1 receptor (Homo sapiens, UniProt P35367); conditions: cited from earlier work
[12] = system: peripheral al adrenergic and muscarinic receptors; conditions: cited from earlier work
[13] = target: serotonin reuptake site (Homo sapiens, UniProt P31645); conditions: cited from earlier work
[14] = system: cholinergic muscarinic receptors; conditions: cited from earlier work
[15] = target: serotonin 5-HT2A receptor (Homo sapiens, UniProt P28223); conditions: cited from earlier work
[16] = cited from earlier work
[17] = system: dopaminergic, adrenergic, cholinergic, or histaminergic receptors; conditions: in vitro; cited from earlier work
[18] = system: human plasma proteins; conditions: cited from earlier work
[19] = system: bipolar I patients; conditions: cited from earlier work
[20] = system: status epilepticus; conditions: add-on therapy with other anti-epileptic drugs; cited from earlier work
[21] = system: GABAA, BZD, and β adrenergic receptors; conditions: cited from earlier work
[22] = human, in vivo; cited from earlier work
[23] = system: anxiety and depression; conditions: human, in vivo; cited from earlier work
[24] = system: cholinergic, muscarinic, and benzodiazepine receptors; conditions: cited from earlier work
[25] = system: serotonin 5-HT1C, 5-HT1D and 5-HT1A receptors; conditions: cited from earlier work
[26] = system: dopamine D1 and haloperidol-sensitive sigma site; conditions: cited from earlier work
[27] = system: cholinergic muscarinic or β1 and β2 adrenergic receptors; conditions: cited from earlier work
[28] = system: treatment resistant depression; format: in vivo, human; conditions: 150 mg titrated up to 225 mg
[29] = system: neuronal serotonin reuptake; conditions: cited from earlier work
[30] = system: uptake of glutamate, or choline; conditions: cited from earlier work
[31] = system: dopamine D1 and D2, muscarinic, serotonin 5HT1A, 5HT2, 5HT3, β-1 and 2 adrenergic, α-1 and α-2 adrenergic, histamine H2 and H3, adenosine A1 and A2, opiate μ …; conditions: cited from earlier work
[32] = system: histamine H1, serotonin 5HT1B, benzodiazepine, and chloride channel receptors; conditions: cited from earlier work
[33] = system: dopamine D2 and D3, serotonin 5-HT2A, 5-HT2C, 5-HT1D and α-adrenergic receptors; conditions: cited from earlier work
[34] = target: T1, histamine H1 receptor; conditions: cited from earlier work; remark: listed apart in the source
[35] = system: D2, 5-HT2A, and 5-HT1D receptors; conditions: cited from earlier work
[36] = target: 5-HT1A receptor (Homo sapiens, UniProt P08908); conditions: cited from earlier work
[37] = system: other receptor/binding sites tested, including the cholinergic muscarinic receptor; conditions: cited from earlier work
[38] = maintenance treatment over eighteen months
[39] = quetiapine fumarate (150 mg BID) and divalproex (500 mg BID)

T1 sequence (P35367 whole entry, species assumed): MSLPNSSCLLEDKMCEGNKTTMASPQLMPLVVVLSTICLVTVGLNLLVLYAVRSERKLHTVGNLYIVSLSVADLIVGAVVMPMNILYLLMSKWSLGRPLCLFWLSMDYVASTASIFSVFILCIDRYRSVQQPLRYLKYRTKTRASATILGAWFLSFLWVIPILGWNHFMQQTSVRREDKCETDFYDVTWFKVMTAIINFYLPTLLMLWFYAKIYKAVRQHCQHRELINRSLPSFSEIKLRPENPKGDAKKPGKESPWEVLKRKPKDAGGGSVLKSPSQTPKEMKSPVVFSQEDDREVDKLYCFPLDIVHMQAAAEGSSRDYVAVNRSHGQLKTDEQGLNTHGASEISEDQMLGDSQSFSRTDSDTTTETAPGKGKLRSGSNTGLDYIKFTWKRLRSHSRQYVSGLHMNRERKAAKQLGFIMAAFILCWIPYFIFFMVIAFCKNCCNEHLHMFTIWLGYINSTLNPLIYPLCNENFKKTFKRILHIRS
Sequence of serotonin reuptake site (P31645 whole entry): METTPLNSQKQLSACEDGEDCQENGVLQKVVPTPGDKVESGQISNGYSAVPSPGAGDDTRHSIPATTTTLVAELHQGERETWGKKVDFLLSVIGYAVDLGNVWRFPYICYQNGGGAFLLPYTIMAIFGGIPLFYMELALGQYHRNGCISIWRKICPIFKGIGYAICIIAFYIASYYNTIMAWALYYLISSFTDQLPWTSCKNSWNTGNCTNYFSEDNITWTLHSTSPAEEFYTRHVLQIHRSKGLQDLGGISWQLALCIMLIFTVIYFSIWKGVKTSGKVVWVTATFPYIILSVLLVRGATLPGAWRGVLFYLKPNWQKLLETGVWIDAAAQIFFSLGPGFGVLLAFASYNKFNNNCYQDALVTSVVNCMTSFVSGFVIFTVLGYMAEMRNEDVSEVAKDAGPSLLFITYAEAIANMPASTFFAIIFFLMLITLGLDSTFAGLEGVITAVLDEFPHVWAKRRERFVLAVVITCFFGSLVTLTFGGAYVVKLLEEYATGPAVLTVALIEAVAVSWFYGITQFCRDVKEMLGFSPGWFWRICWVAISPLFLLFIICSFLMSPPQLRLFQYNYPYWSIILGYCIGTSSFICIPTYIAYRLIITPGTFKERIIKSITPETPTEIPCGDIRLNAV
Sequence of 5-HT1A receptor (P08908 whole entry): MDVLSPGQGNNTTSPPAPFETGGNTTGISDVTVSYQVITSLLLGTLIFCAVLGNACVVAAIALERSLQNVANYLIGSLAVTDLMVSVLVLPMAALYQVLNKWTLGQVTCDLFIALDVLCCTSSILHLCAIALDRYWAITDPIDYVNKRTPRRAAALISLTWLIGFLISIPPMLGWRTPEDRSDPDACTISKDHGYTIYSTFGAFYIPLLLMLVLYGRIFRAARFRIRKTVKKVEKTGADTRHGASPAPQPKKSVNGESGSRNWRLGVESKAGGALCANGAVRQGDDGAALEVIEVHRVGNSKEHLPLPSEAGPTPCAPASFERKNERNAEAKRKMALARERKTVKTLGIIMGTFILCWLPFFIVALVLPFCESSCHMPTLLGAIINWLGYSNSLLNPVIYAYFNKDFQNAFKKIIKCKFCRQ
Sequence of serotonin 5-HT2A receptor (P28223 whole entry): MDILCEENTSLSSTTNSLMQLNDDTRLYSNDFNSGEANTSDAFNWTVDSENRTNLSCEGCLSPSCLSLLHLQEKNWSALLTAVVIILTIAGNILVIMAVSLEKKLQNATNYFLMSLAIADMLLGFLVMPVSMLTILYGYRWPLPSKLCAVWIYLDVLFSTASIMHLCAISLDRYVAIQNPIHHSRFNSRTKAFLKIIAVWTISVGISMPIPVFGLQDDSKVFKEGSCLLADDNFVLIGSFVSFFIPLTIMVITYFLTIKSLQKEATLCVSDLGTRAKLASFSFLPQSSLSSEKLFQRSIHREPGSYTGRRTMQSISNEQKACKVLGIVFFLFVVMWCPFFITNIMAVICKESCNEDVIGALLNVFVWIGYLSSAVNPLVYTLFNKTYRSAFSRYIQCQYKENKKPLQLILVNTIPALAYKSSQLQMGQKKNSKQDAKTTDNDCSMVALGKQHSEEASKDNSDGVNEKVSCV

Compound: 1-(aminoethyl)cyclohexaneacetic acid [gabapentin]
- effect on norepinephrine reuptake (in words) [1]: does not alter
- effect on dopamine reuptake (in words) [2]: does not alter
- inhibition of GABA uptake or degradation [3]: not an inhibitor
- effect on radioligand binding [4]: does not modify

Compound: CC(NC(C)(C)C)C(=O)c1cccc(Cl)c1.Cl (racemic) [bupropion, (±)-1-(3-chlorophenyl)-2-[(1,1-dimethylethyl)amino]-1-propanone hydrochloride]
- symptomatic success in MDD, first episode [5]: modest symptomatic success
- effect on norepinephrine reuptake (in words) [1]: relatively weak inhibitor
- effect on dopamine reuptake (in words) [2]: relatively weak inhibitor
- inhibition of monoamine oxidase [6]: does not inhibit
- elimination half-life [7]: approximately 21 hours

Compound: CN1CCN2c3ncccc3Cc3ccccc3C2C1 (racemic) [mirtazapine, 1,2,3,4,10,14b-hexahydro-2-mehtylpryazino [2.1-a] pyrido [2,3-c] benzazepine]
- functional activity [8]: antagonist
- functional activity [9]: potent antagonist
- affinity [10]: no significant affinity
- functional activity [11]: potent antagonist
- functional activity [12]: moderate antagonist

Compound: O=C1CCc2ccc(OCCCCN3CCN(c4cccc(Cl)c4Cl)CC3)cc2N1 [aripiprazole, 7-[4-[4-(2,3-dichlorophenyl)-1-piperazinyl]butoxy]-3,4-dihydrocarbostyril]
- affinity [13]: moderate affinity
- affinity [14]: no appreciable affinity
- functional activity [15]: antagonist
- oral absorption (in words) [7]: well absorbed
- pharmacokinetics ([16]; lithium (1200-1800 mg/day) for 21 days with aripiprazole (30 mg/day)): did not result in clinically significant changes

Compound: CNCC[C@H](Oc1cccc2ccccc12)c1cccs1.Cl [duloxetine, (+)-(S)-N-methyl-γ-(1-naphthyloxy)-2-thiophenepropylamine hydrochloride]
- inhibition of monoamine oxidase [6]: does not inhibit
- affinity [17]: no significant affinity

Compound: CN(C)CCC[C@@]1(c2ccc(F)cc2)OCc2cc(C#N)ccc21 [escitalopram, S-(+)-1-[3-(dimethylamino)propyl]-1-(p-fluorophenyl)-5-phthalancarbonitrile oxalate]
- effect on norepinephrine reuptake (in words) [1]: minimal effects
- effect on dopamine reuptake (in words) [2]: minimal effects
- time to peak plasma concentration [7]: about 5 hours
- time to steady state plasma concentrations ([7]; daily dosing): a week
- increase of half life in elderly patients ([7]; elderly patients): approximately 50%
- elimination half-life [7]: 27 to 32 h
- binding to human plasma proteins [18]: approximately 56%

Compound: Nc1nnc(-c2cccc(Cl)c2Cl)c(N)n1 [lamotrigine, 3,5-diamino-6-(2,3-dichlorophenyl)-1,2,4-triazine]
- delay of time to occurrence of a mood episode ([19]; approximately 200 mg/day, ranging from 100 mg/day to 400 mg/day): effective in delaying the time to occurrence of a mood episode
- mood pole against which predominantly effective [19, 38]: predominantly effective against depression
- prevention of mood episodes compared with placebo [19, 38]: superior to placebo
- plasma concentration generally effective in controlling SE [20]: about 24 μg/ml

Compound: Cc1cc2c(s1)Nc1ccccc1N=C2N1CCN(C)CC1 [olanzapine, 2-methyl-4-(4-methyl-1-piperazinyl)-10H-thieno[2,3-b][1,5]benzodiazepine]
- binding [21]: binds weakly

Compound: NC(=O)N1c2ccccc2CC(=O)c2ccccc21 [oxcarbazepine, 10,11-dihydro-10-oxo-5H-dibenzo[b,f]azepine-5-carboxamide]
- elimination half-life [7]: about 2 hours
- tolerability of dose [22]: not be able to tolerate

Compound: CNCCCC1c2ccccc2C=Cc2ccccc21.Cl [protriptyline, N-methyl-5H-dibenzo[a,d]-cycloheptene-5-propanamine hydrochloride]
- time to clinical effect [23]: one week
- time to significant plasma levels ([7]; human, in vivo): ≤ 2 h
- oral absorption (in words) [7]: well absorbed

Compound: OCCOCCN1CCN(C2=Nc3ccccc3Sc3ccccc32)CC1 [quetiapine, 5-[2-(4-dibenzo[b,f][1,4]thiazepin-11-yl-1-piperazinyl)ethoxy]ethanol fumarate]
- time to peak plasma concentration [7]: 1.5 h
- elimination half-life [7]: about 6 hours
- time to steady state plasma concentrations ([7]; repeated dosing): two
- extent of absorption or mean oral clearance [16, 39]: without affecting
- increase of mean maximum plasma concentration at steady state [16, 39]: 17%
- steady-state pharmacokinetics ([16]; quetiapine fumarate (300 mg BID) with fluoxetine (60 mg once daily), haloperidol (7.5 mg BID) or risperidone (3 mg BID)): did not alter
- affinity [24]: no appreciable affinity

Compound: Cc1nc2n(c(=O)c1CCN1CCC(c3noc4cc(F)ccc34)CC1)CCCC2 [risperidone, 3-[2-[4-(6-fluoro-1,2-benzisoxazol-3-yl)piperidino]ethyl]-2-methyl-6,7,8,9-tetrahydro-4H-pyrido-[1,2-a]pyrimidin-4-one]
- affinity [25]: low to moderate affinity
- affinity [26]: weak affinity
- affinity [27]: no affinity

Compound: CN[C@H]1CC[C@@H](c2ccc(Cl)c(Cl)c2)c2ccccc21.Cl [sertraline, (1S-cis)-4-(3,4-dichlorophenyl)-1,2,3,4-tetrahydro-N-methyl-1-naphthylamine hydrochloride]
- response of first episode of Treatment Resistant Depression [28]: partial response
- effect on norepinephrine reuptake (in words) [1]: weak effects
- effect on dopamine reuptake (in words) [2]: weak effects
- reduction of elimination in elderly patients ([7]; elderly patients): approximately 40%
- elimination half-life [7]: about 26 hours

Compound: Cc1ccsc1C(=CCCN1CCC[C@@H](C(=O)O)C1)c1sccc1C [tiagabine, (−)-®-1-[4,4-Bis(3-methyl-2-thienyl)-3-butenyl]nipecotic acid hydrochloride]
- inhibition of serotonin reuptake (in words) [29]: does not significantly inhibit
- effect on norepinephrine reuptake (in words) [1]: does not significantly inhibit
- effect on dopamine reuptake (in words) [2]: does not significantly inhibit
- inhibition of uptake of glutamate or choline [30]: does not significantly inhibit
- binding [31]: little or no binding
- binding [32]: at concentrations greatly exceeding that is needed to inhibit the uptake of GABA
- time to peak plasma concentration [7]: approximately 45 minutes
- fraction excreted in the feces ([7]; as metabolites): 63%
- fraction excreted renally ([7]; as metabolites): 25%
- fraction excreted unchanged ([7]; human, in vivo): 2%
- oral absorption (in words) [7]: rapid

Compound: O=C1Cc2cc(CCN3CCN(c4nsc5ccccc45)CC3)c(Cl)cc2N1 [ziprasidone, 5-[2-[4-(1,2-benzoisothiazol-3-yl)-1-piperazinyl]ethyl]-6-chloro-1,3-dihydro-2H-indol-2-one]
- inhibition of serotonin reuptake (in words) [29]: inhibited
- effect on norepinephrine reuptake (in words) [1]: inhibited
- in vitro binding affinity [33]: high in vitro binding affinity
- in vitro binding affinity [34]: moderate affinity
- functional activity [35]: antagonist
- functional activity [36]: agonist
- affinity [37]: No appreciable affinity
- elimination half-life [7]: about 7 hours
- time to steady state plasma concentrations ([7]; repeated dosing): one to three
